Drawing on patent US8742106B2 (Novartis AG, priority 2009, dated 2014), this text covers Kd and Ki for 19 compounds.

In general, Kd refers to the free concentration of one partner at which half of the binding sites on the other are occupied at equilibrium, for simple one-to-one binding. Usually Ki stands for the dissociation constant of the complex between target and ligand, obtained from inhibition or displacement.

Test [1] concerns the target T1, human orexin 1 receptors (Homo sapiens (Human), UniProt O43613). Briefly: Radioligand Binding Assay II ([3H]-SB649868 competition, cell membranes). The conditions noted are these: read-out: binding II hOx1R Kd. As for the experimental part:
(§1) Radioligand Binding Assay II
(§2) For crude cell membrane preparations, cells (CHO, Chinese hamster ovary or HEK, human embryonic kidney) expressing human orexin 1 or human orexin 2 receptors, were washed with HEPES (10 mM, pH 7.5), scraped off the culture plates with the same buffer, and centrifuged at 4° C. for 5 min at 2500×g. The cell pellet was either stored at −80° C. or used directly. Before the experiments, cell membranes were re-suspended in binding assay buffer (10 mM HEPES, 0.5% (w/v) bovine serum albumin, pH 7.5) by homogenisation with a Polytron homogeniser at 50 Hz for 20 s. Cell membranes were also used as made available by commercial providers.
(§3) Bound radioactivity was measured, and data were analysed with the program XLFIT or Graphpad Prism. Protein concentration was determined according to the Bradford/BioRad Protein Assay Kit.
In competition experiments, cell homogenates (150 μl) were incubated in assay buffer (10 mM HEPES, pH 7.5, 0.5% (w/v) bovine serum albumin, 5 mM MgCl2, 1 mM CaCl2, and tween 0.05%) for 1 h at room temperature with about 1 nM of the radioligand [^3H]-SB649868, 66 Ci/mmole, 50 μl), and with various concentrations of compounds of the invention (50 μl) in triplicates; non-specific binding was determined in the presence of almorexant (10 μM). Reactions were terminated by vacuum filtration, 3 washes of ice cold wash buffer (Tris-HCl pH 7.4/10 mM, with NaCl 154 mM). Competition data is expressed in Table 2 as Kd [μM].

In test [2] the target is T1, human orexin 1 receptors. Briefly: Calcium Accumulation in Cells (FLIPR), antagonism of orexin A. It is filed as cell-based. Conditions: antagonism of orexin A, Cheng-Prusoff corrected; read-out: FLIPR hOx1R Ki.
The target in test [3] is T2, human orexin 2 receptors (Homo sapiens (Human), UniProt O43614). Description: Radioligand Binding Assay II ([3H]-SB649868 competition, cell membranes). The conditions noted are these: read-out: binding II hOx2R Kd. The protocol:
as §1, §2, §3
In competition experiments, cell homogenates (150 μl) were incubated in assay buffer (10 mM HEPES, pH 7.5, 0.5% (w/v) bovine serum albumin, 5 mM MgCl2, 1 mM CaCl2, and tween 0.05%) for 1 h at room temperature with about 1 nM of the radioligand [^3H]-SB649868, 66 Ci/mmole, 50 μl), and with various concentrations of compounds of the invention (50 μl) in triplicates; non-specific binding was determined in the presence of almorexant (10 μM). Reactions were terminated by vacuum filtration, 3 washes of ice cold wash buffer (Tris-HCl pH 7.4/10 mM, with NaCl 154 mM).

For test [4], the target named is T2, human orexin 2 receptors. Briefly: Calcium Accumulation in Cells (FLIPR), antagonism of orexin A. Conditions: antagonism of orexin A, Cheng-Prusoff corrected; read-out: FLIPR hOx2R Ki. It is filed as cell-based. In a few lines:
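Cells expressing human orexin 2 receptor, loaded with Fluo4-AM (2 μM) plus probenecid (0.1 mM) for 1 h, then washed. Antagonism read as inhibition of the orexin A calcium fluorescence signal (FLIPR).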

Structures are written as SMILES.

T2 sequence (O43614 whole entry): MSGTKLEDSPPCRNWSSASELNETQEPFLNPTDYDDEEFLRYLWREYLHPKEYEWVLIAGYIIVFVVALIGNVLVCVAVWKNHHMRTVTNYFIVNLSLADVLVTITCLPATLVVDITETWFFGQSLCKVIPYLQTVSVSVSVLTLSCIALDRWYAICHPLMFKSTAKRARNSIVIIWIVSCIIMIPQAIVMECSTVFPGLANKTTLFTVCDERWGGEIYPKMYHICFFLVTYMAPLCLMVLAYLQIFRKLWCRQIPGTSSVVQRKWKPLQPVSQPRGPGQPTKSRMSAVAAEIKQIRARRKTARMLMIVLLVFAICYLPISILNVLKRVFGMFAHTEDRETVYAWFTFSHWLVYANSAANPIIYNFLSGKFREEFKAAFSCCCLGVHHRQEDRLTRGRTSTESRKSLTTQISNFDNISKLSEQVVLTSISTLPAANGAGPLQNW
T1 sequence (O43613 whole entry): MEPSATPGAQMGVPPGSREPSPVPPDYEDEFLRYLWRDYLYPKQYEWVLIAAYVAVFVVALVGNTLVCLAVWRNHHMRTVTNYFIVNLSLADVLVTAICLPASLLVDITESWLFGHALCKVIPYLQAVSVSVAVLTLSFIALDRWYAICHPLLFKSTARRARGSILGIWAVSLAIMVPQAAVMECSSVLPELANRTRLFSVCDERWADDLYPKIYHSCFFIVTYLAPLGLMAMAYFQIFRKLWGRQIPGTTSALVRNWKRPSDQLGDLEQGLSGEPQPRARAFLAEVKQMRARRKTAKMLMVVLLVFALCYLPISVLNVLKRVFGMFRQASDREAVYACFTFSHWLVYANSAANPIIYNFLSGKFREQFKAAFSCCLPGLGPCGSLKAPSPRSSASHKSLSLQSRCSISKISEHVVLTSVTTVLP

As for `Cc1ccc([C@H](C)NC(=O)COc2cc(C)c3c(-c4ccc(C)cn4)nn(C)c3n2)cc1` [Example 4.9, (S)-2-(1,4-dimethyl-3-(5-methylpyridin-2-yl)-1H-pyrazolo[3,4-b]pyridin-6-yloxy)-N-(1-p-tolylethyl)acetamide], the Kd at human orexin 1 receptors [1] amounted to 14 nM; at human orexin 2 receptors [3], 19 nM. Further, the figures for the Ki at human orexin 1 receptors [2] and at human orexin 2 receptors [4] were 12 nM and 5 nM, respectively.

For the compound `Cc1ccc([C@H](C)NC(=O)COc2cc(C)c3c(C4CC4)nn(C)c3n2)cc1` [Example 7.11, (S)-2-(3-cyclopropyl-1,4-dimethyl-1H-pyrazolo[3,4-b]pyridin-6-yloxy)-N-(1-p-tolylethyl)acetamide], the equilibrium dissociation constant (Kd) on human orexin 1 receptors [1] amounted to 18 nM; on human orexin 2 receptors [3], 17 nM. The inhibitory constant (Ki) at human orexin 1 receptors [2] came to 50 nM; at human orexin 2 receptors [4] it was 24 nM.

As for `Cc1ccc2c(n1)CC[C@@H]2NC(=O)COc1cc(C)c2c(C3CC3)nn(C)c2n1` [Example 6.63, (S)-2-(3-cyclopropyl-1H-dimethyl-1H-pyrazolo[3,4-b]pyridin-6-yloxy)-N-(2-methyl-6,7-dihydro-5H-cyclopenta[b]pyridin-5-yl)acetamide], the Kd on human orexin 1 receptors [1] turned out to be 54 nM; at human orexin 2 receptors [3], 42 nM. For the same compound, the inhibition constant (Ki) at human orexin 1 receptors [2] amounted to 109 nM; on human orexin 2 receptors [4], 22 nM.

Regarding `Cc1ccc([C@H](C)NC(=O)COc2cc(C(F)F)c3c(-c4ccccc4)nn(C)c3n2)cc1` [Example 6.21, (S)-2-(4-(difluoromethyl)-1-methyl-3-phenyl-1H-pyrazolo[3,4-b]pyridin-6-yloxy)-N-(1-p-tolylethyl)acetamide], the Kd on human orexin 1 receptors [1] came out at 37 nM; at human orexin 2 receptors [3] it was 30 nM. Further, the Ki was found to be 29 nM at human orexin 1 receptors [2] and 7 nM on human orexin 2 receptors [4].

`Cc1ccc([C@H](C)NC(=O)COc2cc(C)c3c(-c4ncco4)nn(C)c3n2)cc1` [Example 4.2, (S)-2-(1,4-dimethyl-3-(oxazol-2-yl)-1H-pyrazolo[3,4-b]pyridin-6-yloxy)-N-(1-p-tolylethyl)acetamide]: the values for the dissociation constant (Kd) on human orexin 1 receptors [1] and at human orexin 2 receptors [3] were 10 nM and 17 nM, respectively. In addition, the inhibitory constant (Ki) at human orexin 1 receptors [2] came out at 67 nM; on human orexin 2 receptors [4] it was 32 nM.

As for `Cc1ccc([C@H](C)NC(=O)COc2cc(C)c3c(-c4cccc(C)n4)nn(C)c3n2)cc1` [Example 5.7, (S)-2-(1,4-dimethyl-3-(6-methylpyridin-2-yl)-1H-pyrazolo[3,4-b]pyridin-6-yloxy)-N-(1-p-tolylethyl)acetamide], the Kd on human orexin 1 receptors [1] was 10 nM; on human orexin 2 receptors [3], 21 nM. For the same compound, the inhibitory constant (Ki) at human orexin 1 receptors [2] was 46 nM; at human orexin 2 receptors [4], 56 nM.

As to `COc1ccc2c(c1)CC[C@@H]2NC(=O)COc1cc(C(F)F)c2c(C3CC3)nn(C)c2n1` [Example 6.42, (S)-2-(3-cyclopropyl-4-(difluoromethyl)-1-methyl-1H-pyrazolo[3,4-b]pyridin-6-yloxy)-N-(5-methoxy-2,3-dihydro-1H-inden-1-yl)acetamide], the Kd is 63 nM at human orexin 1 receptors [1] and 14 nM on human orexin 2 receptors [3]. Further, the Ki was determined as 83 nM at human orexin 1 receptors [2] and 10 nM on human orexin 2 receptors [4].

As to `Cc1ccc([C@H](C)NC(=O)COc2cc(C)c3c(-c4ncccn4)nn(C)c3n2)cc1` [Example 4.7, (S)-2-(1,4-dimethyl-3-(pyrimidin-2-yl)-1H-pyrazolo[3,4-b]pyridin-6-yloxy)-N-(1-p-tolylethyl)acetamide], the Kd turned out to be 11 nM at human orexin 1 receptors [1] and 13 nM at human orexin 2 receptors [3]. For the same compound, the values for the Ki on human orexin 1 receptors [2] and on human orexin 2 receptors [4] were 4 nM and 9 nM, respectively.

For the compound `Cc1ccc([C@H](C)NC(=O)COc2ccc3c(C(C)(C)C)nn(C)c3n2)cc1` [Example 6.25, (S)-2-(3-tert-butyl-1-methyl-1H-pyrazolo[3,4-b]pyridin-6-yloxy)-N-(1-p-tolylethyl)acetamide], the Kd at human orexin 1 receptors [1] is 242 nM; at human orexin 2 receptors [3], 164 nM. Further, the Ki was 545 nM at human orexin 1 receptors [2] and 65 nM at human orexin 2 receptors [4].

In the case of `Cc1ccc([C@H](C)NC(=O)COc2cc(C)c3c(-c4cc(C)oc4C)nn(C)c3n2)cc1` [Example 6.30, (S)-2-(3-(2,5-dimethylfuran-3-yl)-1,4-dimethyl-1H-pyrazolo[3,4-b]pyridin-6-yloxy)-N-(1-p-tolylethyl)acetamide], the equilibrium dissociation constant (Kd) was determined as 19 nM at human orexin 1 receptors [1] and 168 nM on human orexin 2 receptors [3]. Besides, the inhibition constant (Ki) was found to be 10 nM at human orexin 1 receptors [2] and 62 nM at human orexin 2 receptors [4].

Consider `CCOc1ccc2c(c1)CC[C@@H]2NC(=O)COc1cc(C)c2c(C3CC3)nn(C)c2n1` [Example 6.68, (S)-2-(3-cyclopropyl-1,4-dimethyl-1H-pyrazolo[3,4-b]pyridin-6-yloxy)-N-(5-ethoxy-2,3-dihydro-1H-inden-1-yl)acetamide], for which the Kd at human orexin 1 receptors [1] came to 52 nM; at human orexin 2 receptors [3], 317 nM. For the same compound, the Ki on human orexin 1 receptors [2] is 71 nM; at human orexin 2 receptors [4] it was 151 nM.

Consider `Cc1ccc([C@H](C)NC(=O)COc2cc(C)c3c(-c4nc(C)cs4)nn(C)c3n2)cc1` [Example 5.1, (S)-2-((1,4-dimethyl-3-(4-methylthiazol-2-yl)-1H-pyrazolo[3,4-b]pyridin-6-yl)oxy)-N-(1-(p-tolyl)ethyl)acetamide], for which the dissociation constant (Kd) on human orexin 1 receptors [1] was 4 nM; at human orexin 2 receptors [3], 3 nM. The Ki on human orexin 1 receptors [2] and at human orexin 2 receptors [4] was 10 nM in each case.

With `Cc1ccc([C@H](C)NC(=O)COc2cc(C)c3c(-c4nccs4)nn(C)c3n2)cc1` [Example 5.2, (S)-2-(1,4-dimethyl-3-(thiazol-2-yl)-1H-pyrazolo[3,4-b]pyridin-6-yloxy)-N-(1-p-tolylethyl)acetamide], the Kd on human orexin 1 receptors [1] and at human orexin 2 receptors [3] was 3 nM each time. In addition, the Ki on human orexin 1 receptors [2] is 6 nM; at human orexin 2 receptors [4], 1 nM.

For `COc1ccc([C@H](C)NC(=O)COc2cc(C)c3c(-c4ccoc4C)nn(C)c3n2)cc1` [Example 6.34, (S)-2-(1,4-dimethyl-3-(2-methylfuran-3-yl)-1H-pyrazolo[3,4-b]pyridin-6-yloxy)-N-(1-(4-methoxyphenyl)ethyl)acetamide], the results for the Kd on human orexin 1 receptors [1] and on human orexin 2 receptors [3] were 70 nM and 188 nM, respectively. Moreover, the inhibition constant (Ki) at human orexin 1 receptors [2] is 103 nM; at human orexin 2 receptors [4] it was 113 nM.

`Cc1ccc([C@H](C)NC(=O)COc2cc(C)c3c(-c4ncc(C)s4)nn(C)c3n2)cc1` [Example 5.6, (S)-2-(1,4-dimethyl-3-(5-methylthiazol-2-yl)-1H-pyrazolo[3,4-b]pyridin-6-yloxy)-N-(1-p-tolylethyl)acetamide]: the Kd at human orexin 1 receptors [1] came out at 4 nM; on human orexin 2 receptors [3], 3 nM. The inhibitory constant (Ki) stood at 6 nM at human orexin 1 receptors [2] and 5 nM on human orexin 2 receptors [4].

With `Cc1nn(C)c(C)c1C(C)NC(=O)COc1cc(C(F)F)c2c(-c3ccccc3)nn(C)c2n1` (stereo not shown) [Example 6.20, 2-(4-(difluoromethyl)-1-methyl-3-phenyl-1H-pyrazolo[3,4-b]pyridin-6-yloxy)-N-(1-(1,3,5-trimethyl-1H-pyrazol-4-yl)ethyl)acetamide], the values for the dissociation constant (Kd) on human orexin 1 receptors [1] and on human orexin 2 receptors [3] were 22 nM and 90 nM, respectively. In addition, the Ki on human orexin 1 receptors [2] came out at 63 nM; on human orexin 2 receptors [4], 59 nM.

Take `COc1ccc([C@H](C)NC(=O)COc2cc(C(F)F)c3c(-c4ccccc4)nn(C)c3n2)cc1` [Example 6.17, (S)-2-(4-(difluoromethyl)-1-methyl-3-phenyl-1H-pyrazolo[3,4-b]pyridin-6-yloxy)-N-(1-(4-methoxyphenyl)ethyl)acetamide]: the dissociation constant Kd on human orexin 1 receptors [1] came out at 11 nM; on human orexin 2 receptors [3] it was 7 nM. The inhibition constant Ki was 19 nM at human orexin 1 receptors [2] and 2 nM on human orexin 2 receptors [4].

As for `Cc1ccc([C@H](C)NC(=O)COc2cc(C)c3c(-c4cnn(C)c4)nn(C)c3n2)cc1` [Example 4.6, (S)-2-(1,4-dimethyl-3-(1-methyl-1H-pyrazol-4-yl)-1H-pyrazolo[3,4-b]pyridin-6-yloxy)-N-(1-p-tolylethyl)acetamide], the figures for the Kd at human orexin 1 receptors [1] and on human orexin 2 receptors [3] were 76 nM and 82 nM, respectively. The Ki was determined as 247 nM at human orexin 1 receptors [2] and 89 nM on human orexin 2 receptors [4].

With `Cc1ccc2c(n1)CC[C@@H]2NC(=O)COc1cc(C(F)(F)F)c2c(-c3cc(C)oc3C)nn(C)c2n1` [Example 6.79, (S)-2-(3-(2,5-dimethylfuran-3-yl)-1-methyl-4-(trifluoromethyl)-1H-pyrazolo[3,4-b]pyridin-6-yloxy)-N-(2-methyl-6,7-dihydro-5H-cyclopenta[b]pyridin-5-yl)acetamide], the Kd on human orexin 1 receptors [1] was 34 nM; at human orexin 2 receptors [3], 90 nM. The Ki at human orexin 1 receptors [2] was 23 nM; on human orexin 2 receptors [4], 7 nM.
